Source: paper PMC9420858, “Synthesis, bioactivity, and molecular docking of novel arylpiperazine derivatives as potential AR antagonists” (Frontiers in Chemistry, 2022)
Where two headings read alike, the source gives them in different places.

Experiments:
[1] = test system: LNCaP cells; assay: Antiproliferative activity, CCK-8 assay, LNCaP cells; type: cell-based; details: 24 h, LNCaP human prostate cancer cell line, mean ± SD of three experiments
Protocol: (§1) The antiproliferative activity of compounds 5–26 was assessed using the CCK-8 assay ([Chen et al., 2016]; [Chen et al., 2017]; [Chen et al., 2018]; [Han et al., 2020]; [Guo et al., 2021]; [Hu et al., 2022]; [Zhou et al., 2022]). The 96-well plates (1×10^5 cells/mL) were seeded with cells in a medium, the plates were cultured at 37 °C for 24 h, then different concentrations of tested drugs were added, and the plates were cultured for 24 h. After 24 h, 10 μL of CCK-8 solution (5 mg/ml) was added to the wells, and the cells were cultured for 1 h at 37°C. Cell growth inhibition was performed by measuring the absorbance at 450 nm using a microplate reader, and the percentage of cell growth inhibition was then calculated for each tested drug.
(§2) Antiproliferative activity of the novel arylpiperazine derivatives was firstly evaluated against LNCaP cells using the CCK-8 assay. […] Naftopidil and finasteride ([Banday et al., 2014]) were used as control compounds. RWPE-1 cells were used to compare their toxicity. To clarify whether the antiproliferative activity was related to any interference with AR function, the AR antagonist effect was evaluated using the luciferase reporter gene assay. […] The AR luciferase assays were conducted under the co-treatment of 1 nM AR agonist R1881, and the antagonistic activity was measured by inhibiting the R1881-induced luciferase expression.

[2] = test system: PC-3 cells; assay: Antiproliferative activity, CCK-8 assay, PC-3 cells; type: cell-based; details: PC-3 human prostate cancer cell line, 24 h, mean ± SD of three experiments
Protocol: as §1, §2

[3] = test system: RWPE-1 cells; assay: Cytotoxicity, CCK-8 assay, RWPE-1 normal prostate epithelial cells; type: cell-based; details: RWPE-1 normal non-cancer human prostate epithelial cell line, 24 h, mean ± SD of three experiments
Protocol: as §1, §2

[4] = target: T1, AR-LBD (GST) (Rattus norvegicus, UniProt P15207); assay: AR binding, fluorescence polarization (PolarScreen AR Competitor Assay)
T1 sequence (P15207 651-882 limits assumed): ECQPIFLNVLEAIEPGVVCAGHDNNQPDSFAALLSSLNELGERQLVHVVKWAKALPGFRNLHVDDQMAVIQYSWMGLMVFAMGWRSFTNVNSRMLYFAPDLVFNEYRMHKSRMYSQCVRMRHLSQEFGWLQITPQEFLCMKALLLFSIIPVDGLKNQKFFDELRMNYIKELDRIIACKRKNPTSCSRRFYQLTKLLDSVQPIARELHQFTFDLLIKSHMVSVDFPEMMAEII
Protocol: Briefly, titrations are performed between the tested compounds and the preformed Fluormone™AL Green and the AR-LBD (GST) complex. The tested mixture was allowed to equilibrate at room temperature in 384-well plates for 4 h. […] Data of the ligand binding assays were analyzed using Prism software (GraphPad Software, Inc.).

[5] = AR binding affinity IC50, fluorescence polarization

| SMILES | IC50 ([1]; Homo sapiens, LNCaP) [µM] | melting point [°C] | IC50 [2] [µM] | IC50 [3] [µM] | IC50 [1] [µM] | IC50 [4] [µM] | IC50 [4, 5] [µM] |
| --- | --- | --- | --- | --- | --- | --- | --- |
| c1ccc(CN2CCN(CCc3ccc(COc4ccc5c(c4)CCC5)cc3)CC2)cc1 [Compound 6, 1-(4-((2,3-dihydro-1H-inden-5-yloxy)methyl)phenethyl)-4-benzylpiperazine] | 23.45 ± 0.12 | 71.1 to 73.3 | 11.3 ± 0.15 | 11.6 ± 0.21 | – | – | – |
| Cc1cccc(N2CCN(CCc3ccc(COc4ccc5c(c4)CCC5)cc3)CC2)c1 [Compound 9, 1-(4-((2,3-dihydro-1H-inden-5-yloxy)methyl)phenethyl)-4-m-tolylpiperazine] | 42.68 ± 0.14 | 61.2 to 62.7 | > 50 | 11 ± 0.16 | – | – | – |
| COc1ccccc1N1CCN(CC(O)COc2cccc3ccccc23)CC1 (stereo not shown) [Naftopidil, reference compound] | 22.4 ± 0.61 | – | 42.1 ± 0.79 | > 50 | – | – | – |
| COc1ccc(N2CCN(CCc3ccc(COc4ccc5c(c4)CCC5)cc3)CC2)cc1 [Compound 15, 1-(4-((2,3-dihydro-1H-inden-5-yloxy)methyl)phenethyl)-4-(4-methoxyphenyl)piperazine] | < 10 | 78.1 to 79.3 | 8.94 ± 0.21 | 21.7 ± 0.23 | 9.72 ± 0.13 | 2.85 ± 0.65 | – |
| Fc1ccc(N2CCN(CCc3ccc(COc4ccc5c(c4)CCC5)cc3)CC2)cc1 [Compound 17, 1-(4-((2,3-dihydro-1H-inden-5-yloxy)methyl)phenethyl)-4-(4-fluorophenyl)piperazine] | 17.92 ± 0.13 | 79.8 to 80.5 | 1.45 ± 0.17 | > 50 | – | – | – |
| c1ccc(N2CCN(CCc3ccc(COc4ccc5c(c4)CCC5)cc3)CC2)cc1 [Compound 5, 1-(4-((2,3-dihydro-1H-inden-5-yloxy)methyl)phenethyl)-4-phenylpiperazine] | – | 82.2 to 83.5 | > 50 | > 50 | – | 1.46 ± 0.24 | < 2 |
| COc1cccc(N2CCN(CCc3ccc(COc4ccc5c(c4)CCC5)cc3)CC2)c1 [Compound 14, 1-(4-((2,3-dihydro-1H-inden-5-yloxy)methyl)phenethyl)-4-(3-methoxyphenyl)piperazine] | – | 74.2 to 75.4 | 0.87 ± 0.12 | > 50 | – | 2.62 ± 0.25 | – |
| Clc1ccccc1N1CCN(CCc2ccc(COc3ccc4c(c3)CCC4)cc2)CC1 [Compound 19, 1-(4-((2,3-dihydro-1H-inden-5-yloxy)methyl)phenethyl)-4-(2-chlorophenyl)piperazine] | < 10 | 91.4 to 92.1 | > 50 | 32.67 ± 0.14 | 6.87 ± 0.06 | 2.06 ± 0.21 | < 3 |
| Brc1ccc(N2CCN(CCc3ccc(COc4ccc5c(c4)CCC5)cc3)CC2)cc1 [Compound 24, 1-(4-((2,3-dihydro-1H-inden-5-yloxy)methyl)phenethyl)-4-(4-bromophenyl)piperazine] | 14.7 ± 0.15 | 114.1 to 115.2 | 2.31 ± 0.23 | > 50 | – | – | – |
| Clc1ccc(N2CCN(CCc3ccc(COc4ccc5c(c4)CCC5)cc3)CC2)cc1 [Compound 21, 1-(4-((2,3-dihydro-1H-inden-5-yloxy)methyl)phenethyl)-4-(4-chlorophenyl)piperazine] | – | 117.2 to 118.6 | > 50 | > 50 | – | 0.65 ± 0.08 | < 2 |
| Cc1ccc(Cl)cc1N1CCN(CCc2ccc(COc3ccc4c(c3)CCC4)cc2)CC1 [Compound 23, 1-(4-((2,3-dihydro-1H-inden-5-yloxy)methyl)phenethyl)-4-(5-chloro-2-methylphenyl)piperazine] | 12.6 ± 0.22 | 87.4 to 88.3 | 0.95 ± 0.14 | > 50 | – | – | – |
| Clc1cccc(N2CCN(CCc3ccc(COc4ccc5c(c4)CCC5)cc3)CC2)c1 [Compound 20, 1-(4-((2,3-dihydro-1H-inden-5-yloxy)methyl)phenethyl)-4-(3-chlorophenyl)piperazine] | 16.98 ± 0.15 | 83.2 to 84.3 | 1.56 ± 0.14 | > 50 | – | – | – |
| Cc1ccc(N2CCN(CCc3ccc(COc4ccc5c(c4)CCC5)cc3)CC2)cc1 [Compound 10, 1-(4-((2,3-dihydro-1H-inden-5-yloxy)methyl)phenethyl)-4-p-tolylpiperazine] | 20.9 ± 0.22 | 105.1 to 106.3 | 17.2 ± 0.21 | 9.24 ± 0.23 | – | – | – |
| FC(F)(F)c1ccccc1N1CCN(CCc2ccc(COc3ccc4c(c3)CCC4)cc2)CC1 [Compound 25, 1-(4-((2,3-dihydro-1H-inden-5-yloxy)methyl)phenethyl)-4-(2-(trifluoromethyl)phenyl)piperazine] | – | 53.6 to 54.8 | > 50 | > 50 | – | 1.22 ± 0.15 | < 2 |
| FC(F)(F)c1ccc(N2CCN(CCc3ccc(COc4ccc5c(c4)CCC5)cc3)CC2)cc1 [Compound 26, 1-(4-((2,3-dihydro-1H-inden-5-yloxy)methyl)phenethyl)-4-(4-(trifluoromethyl)phenyl)piperazine] | – | 135.3 to 136.5 | > 50 | > 50 | – | 1.43 ± 0.18 | < 2 |
| Fc1ccc(N2CCN(CCc3ccc(COc4ccc5c(c4)CCC5)cc3)CC2)c(F)c1 [Compound 18, 1-(4-((2,3-dihydro-1H-inden-5-yloxy)methyl)phenethyl)-4-(2,4-difluorophenyl)piperazine] | 10.7 ± 0.14 | 86.1 to 86.5 | 1.92 ± 0.24 | > 50 | – | – | – |
| Fc1ccccc1N1CCN(CCc2ccc(COc3ccc4c(c3)CCC4)cc2)CC1 [Compound 16, 1-(4-((2,3-dihydro-1H-inden-5-yloxy)methyl)phenethyl)-4-(2-fluorophenyl)piperazine] | 18.56 ± 0.17 | 64.2 to 65.3 | > 50 | > 50 | – | – | – |
| Cc1ccc(C)c(N2CCN(CCc3ccc(COc4ccc5c(c4)CCC5)cc3)CC2)c1 [Compound 11, 1-(4-((2,3-dihydro-1H-inden-5-yloxy)methyl)phenethyl)-4-(2,5-dimethylphenyl)piperazine] | > 50 | 70.4 to 71.5 | 4.31 ± 0.13 | > 50 | – | – | – |
| c1ccc(N2CCN(CCc3ccc(COc4ccc5c(c4)CCC5)cc3)CC2)nc1 [Compound 7, 1-(4-((2,3-dihydro-1H-inden-5-yloxy)methyl)phenethyl)-4-(pyridin-2-yl)piperazine] | 15.29 ± 0.13 | 90.1 to 91.8 | > 50 | 7.68 ± 0.15 | – | – | – |
| CCOc1ccccc1N1CCN(CCc2ccc(COc3ccc4c(c3)CCC4)cc2)CC1 [Compound 13, 1-(4-((2,3-dihydro-1H-inden-5-yloxy)methyl)phenethyl)-4-(2-ethoxyphenyl)piperazine] | > 50 | 65.2 to 66.1 | > 50 | > 50 | – | – | – |
